Measured values taken from the supplement of paper PMC10307832.

What was measured:
Experiment in all cases: relative viability (nuclei count vs DMSO), 5 days (fraction); higher = more cells survive
[1] = compound: C1=CC2=C(C=CC(=C2)C=C3C(=O)NC(=NCC4=CC=CS4)S3)N=C1 [RO-3306] + Cc1nc(Nc2ncc(C(=O)Nc3c(C)cccc3Cl)s2)cc(N2CCN(CCO)CC2)n1 [Dasatinib] (partner 0.075 µM)
How it was run: (§1)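 Relative viability equals treated-well nuclei counts divided by vehicle-well nuclei counts. Counts came from 4× images of lung cancer cell lines grown in 1536-well plates for 5 days after pin-tool dosing on the day after seeding. Dosing used one drug alone or a fixed anchor-drug dose plus five library-drug doses (not always all listed) in √10 steps, and values are medians of duplicate plates.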

[2] = compound: C1=CC2=C(C=CC(=C2)C=C3C(=O)NC(=NCC4=CC=CS4)S3)N=C1 [RO-3306] + CS(=O)(=O)CCNCc1ccc(-c2ccc3ncnc(Nc4ccc(OCc5cccc(F)c5)c(Cl)c4)c3c2)o1 [Lapatinib] (partner 2 µM)
How it was run: as §1

[3] = compound: O=S(=O)(c1ccccc1)N(CC(F)(F)F)c1ccc(C(O)(C(F)(F)F)C(F)(F)F)cc1 + CS(=O)(=O)CCNCc1ccc(-c2ccc3ncnc(Nc4ccc(OCc5cccc(F)c5)c(Cl)c4)c3c2)o1 [Lapatinib] (partner 2 µM)
How it was run: as §1

[4] = compound: O=S(=O)(c1ccccc1)N(CC(F)(F)F)c1ccc(C(O)(C(F)(F)F)C(F)(F)F)cc1 + C[C@@H](Oc1cc(-c2cnn(C3CCNCC3)c2)cnc1N)c1c(Cl)ccc(F)c1Cl [Crizotinib] (partner 1 µM)
How it was run: as §1

**Q.** What does the source list for UMC-11?
**A.** relative viability ([1]; first compound 0.01 µM): 0.553; relative viability ([1]; first compound 0.03162 µM): 0.341; relative viability ([1]; first compound 0.1 µM): 0.432; relative viability ([1]; first compound 0.3162 µM): 0.546; relative viability ([1]; first compound 1 µM): 0.453; relative viability ([2]; first compound 0.01 µM): 1.06; relative viability ([2]; first compound 0.03162 µM): 0.676; relative viability ([2]; first compound 0.1 µM): 0.829; relative viability ([2]; first compound 0.3162 µM): 0.971; relative viability ([2]; first compound 1 µM): 0.671; relative viability ([3]; first compound 0.8 µM): 1.19; relative viability ([3]; first compound 2.53 µM): 0.966; relative viability ([3]; first compound 8 µM): 1.22; relative viability ([4]; first compound 0.8 µM): 0.585; relative viability ([4]; first compound 2.53 µM): 0.583; relative viability ([4]; first compound 8 µM): 0.749
